Test results reported in paper PMC6893700 (Viruses, 2019).
Like-named read-outs stand apart in the source and are kept apart here.

What was measured:
ZIKV strain PAN2016 [1] = experiment: Plaque reduction inhibition assay, ZIKV PAN2016 in Vero E6 cells; assay type: cell-based; conditions: Zika virus, Vero C1008, Vero E6 cells; for IC90: 90% plaque reduction, read-out: IC90 against ZIKV PAN2016 strain; for IC50: plaque reduction, read-out: IC50 PAN2016
ZIKV strain R116265 = experiment: Plaque reduction inhibition assay, ZIKV R116265 in Vero E6 cells; assay type: cell-based; conditions: Zika virus, Vero C1008
ZIKV strain PAN2015 = experiment: Plaque reduction inhibition assay, ZIKV PAN2015 in Vero E6 cells; assay type: cell-based; conditions: Zika virus, Vero C1008
ZIKV strain FLR [2] = experiment: Plaque reduction inhibition assay, ZIKV FLR in Vero E6 cells; assay type: cell-based; conditions: Zika virus, Vero C1008; plaque reduction, Vero E6 cells; read-out: IC50 FLR
ZIKV strain R103451 = experiment: Plaque reduction inhibition assay, ZIKV R103451 in Vero E6 cells; assay type: cell-based; conditions: Zika virus, Vero C1008; plaque reduction, Vero E6 cells; read-out: IC50 R103451
ZIKV strain PRVABC59 [3] = experiment: Plaque reduction inhibition assay, ZIKV PRVABC59 in Vero E6 cells; assay type: cell-based; conditions: Zika virus, Vero C1008; plaque reduction, Vero E6 cells
ZIKV strain PLCal_ZV = experiment: Plaque reduction inhibition assay, ZIKV PLCal_ZV in Vero E6 cells; assay type: cell-based; conditions: Zika virus, Vero C1008; plaque reduction, Vero E6 cells; read-out: IC50 PLCal_ZV
ZIKV strain IbH 30656 = experiment: Plaque reduction inhibition assay, ZIKV IbH 30656 in Vero E6 cells; assay type: cell-based; conditions: Zika virus, Vero C1008; plaque reduction, Vero E6 cells; read-out: IC50 IbH 30656
[4] = test system: ZIKV mosquito strain MEX 2–81; experiment: Plaque reduction inhibition assay, ZIKV MEX 2–81 in Vero E6 cells; assay type: cell-based; conditions: Zika virus, Vero C1008; plaque reduction, Vero E6 cells; read-out: IC50 MEX 2–81
[5] = test system: ZIKV rhesus macaque strain MR 766; experiment: Plaque reduction inhibition assay, ZIKV MR 766 in Vero E6 cells; assay type: cell-based; conditions: Zika virus, Vero C1008, in Macaca mulatta; plaque reduction, Vero E6 cells; read-out: IC50 MR 766
DENV-1-V1792 = experiment: Plaque reduction inhibition assay, DENV-1 in LLC-MK2 cells; assay type: cell-based; conditions: Dengue virus, DENV1
DENV-2-V594 = experiment: Plaque reduction inhibition assay, DENV-2 in LLC-MK2 cells; assay type: cell-based; conditions: Dengue virus, DENV2
DENV-3-V1043 = experiment: Plaque reduction inhibition assay, DENV-3 in LLC-MK2 cells; assay type: cell-based; conditions: Dengue virus, DENV3
DENV-4-PR 06-65-740 = experiment: Plaque reduction inhibition assay, DENV-4 in LLC-MK2 cells; assay type: cell-based; conditions: Dengue virus, DENV4
ZIKV (PAN2016) = experiment: Time-of-addition experiment, ZIKV PAN2016 in Vero E6 cells; assay type: cell-based, Zika virus (ZIKV); conditions: for inhibition at 30 µM: Zika virus
[6] = biological target: ZIKV full-length E protein (Zika virus, UniProt A0A024B7W1); assay type: binding; conditions: ELISA
[7] = biological target: T1, ZIKV envelope protein domain III (EDIII) protein (Zika virus, UniProt A0A024B7W1); assay type: binding
T1 construct: E residues 298–409 fused with a C-terminal human Fc; made in house

ZIKV strain PAN2016 [8] = assay type: cell-based, Zika virus (ZIKV); conditions: for Fold of Enhancement (natural product with gossypol) / CI (combination index) of gossypol with the named natural product: ZIKV PAN2016; for Fold of Enhancement (natural product with gossypol): (IC50 alone)/(IC50 in the mixture)—1; for CI (combination index) of gossypol with the named natural product: CI < 1 synergy; for IC50: Zika virus, Vero C1008, ZIKV PAN2016, Vero E6, natural product without combination, read-out: IC50 Alone
ZIKV strain FLR [9] = assay type: cell-based, Zika virus (ZIKV); conditions: ZIKV FLR; for Fold of Enhancement (natural product with gossypol): (IC50 alone)/(IC50 in the mixture)—1; for CI (combination index) of gossypol with the named natural product: CI < 1 synergy; for IC50: Zika virus, Vero C1008, Vero E6, natural product without combination, read-out: IC50 Alone
ZIKV strain PRVABC59 [10] = assay type: cell-based, Zika virus (ZIKV); conditions: for Fold of Enhancement (natural product with gossypol) / CI (combination index) of gossypol with the named natural product: ZIKV PRVABC59; for Fold of Enhancement (natural product with gossypol): (IC50 alone)/(IC50 in the mixture)—1; for CI (combination index) of gossypol with the named natural product: CI < 1 synergy; for IC50: Zika virus, Vero C1008, ZIKV PRVABC59, Vero E6, natural product without combination, read-out: IC50 Alone
Vero E6 cells [11] = test system: Vero E6 cells
in vitro [12] = conditions: African green monkey
in vitro [13] = conditions: rhesus monkey
in vitro [14] = conditions: African green monkey; remark: listed apart in the source
Vero E6 cells [15] = experiment: Combinatorial cytotoxicity of gossypol with other natural products, CCK8; conditions: Vero E6, (CC50 alone)/(CC50 in the mixture)—1
[16] = Vero C1008, 1 h, read-out: inhibition of ZIKV infection, step d: cotreatment at 37 °C

Sequence of ZIKV full-length E protein (A0A024B7W1 291-794): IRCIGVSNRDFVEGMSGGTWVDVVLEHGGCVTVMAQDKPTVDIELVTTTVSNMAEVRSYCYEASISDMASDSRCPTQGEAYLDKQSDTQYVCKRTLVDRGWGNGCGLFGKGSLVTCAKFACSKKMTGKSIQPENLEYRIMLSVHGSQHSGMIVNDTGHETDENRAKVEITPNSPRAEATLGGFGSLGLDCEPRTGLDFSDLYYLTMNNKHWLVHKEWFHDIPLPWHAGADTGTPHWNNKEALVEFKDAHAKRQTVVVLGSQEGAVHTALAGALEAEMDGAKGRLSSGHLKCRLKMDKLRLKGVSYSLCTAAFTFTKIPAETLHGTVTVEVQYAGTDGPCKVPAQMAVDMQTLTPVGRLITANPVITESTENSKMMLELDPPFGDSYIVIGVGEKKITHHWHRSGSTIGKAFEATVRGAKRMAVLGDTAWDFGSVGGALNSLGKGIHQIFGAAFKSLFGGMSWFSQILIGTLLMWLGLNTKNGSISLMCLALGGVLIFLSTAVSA
T1 sequence (A0A024B7W1 588-699): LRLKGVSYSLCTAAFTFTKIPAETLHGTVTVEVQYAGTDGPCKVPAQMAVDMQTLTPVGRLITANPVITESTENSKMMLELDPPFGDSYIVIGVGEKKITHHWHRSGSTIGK

COc1cc(/C=C/C(=O)CC(=O)/C=C/c2ccc(O)c(OC)c2)ccc1O [Curcumin, curcumin]
IC90 (ZIKV strain PAN2016 [1]): ~47.7 µM
IC50 (ZIKV strain PAN2016 [1]): 13.7 ± 0.72 µM
IC50 (ZIKV strain R116265): 14 ± 0.15 µM
IC50 (ZIKV strain PAN2015): 13.7 ± 0.37 µM
IC50 (ZIKV strain FLR [2]): 16.6 ± 0.34 µM
IC50 (ZIKV strain R103451): 11.2 ± 0.37 µM
IC50 (ZIKV strain PRVABC59 [3]): 12.8 ± 0.35 µM
IC50 (ZIKV strain PLCal_ZV): 10.8 ± 0.73 µM
IC50 (ZIKV strain IbH 30656): 13.6 ± 0.31 µM
IC50 [4]: 5.62 ± 0.52 µM
IC50 [5]: 11.4 ± 0.29 µM
IC50 (DENV-1-V1792): 9.37 ± 0.47 µM
IC50 (DENV-2-V594): 3.07 ± 0.07 µM
IC50 (DENV-3-V1043): 2.09 ± 0.12 µM
IC50 (DENV-4-PR 06-65-740): 4.83 ± 0.24 µM
inhibition at 30 µM (ZIKV (PAN2016); Vero C1008, 1 h, read-out: inhibition of ZIKV infection, step c: cotreatment at 4 °C (attachment)): 75 to 100%
inhibition at 30 µM (ZIKV (PAN2016); [16]): 75 to 100%
inhibition at 30 µM (ZIKV (PAN2016); Vero C1008, read-out: inhibition of ZIKV infection, step a: pretreatment of ZIKV): 75 to 100%
inhibition of ZIKV infection, step e: penetration (membrane fusion) (ZIKV (PAN2016); cells with ZIKV 4 °C 1 h, then natural product 37 °C 1 h, gossypol 15 µM, curcumin 30 µM, digitonin 7.5 µM, conessine 30 µM): low to no impact
inhibition of ZIKV infection, step f: postentry stage (ZIKV (PAN2016); cells with ZIKV 37 °C 1 h, then natural product 37 °C 1 h, gossypol 15 µM, curcumin 30 µM, digitonin 7.5 µM, conessine 30 µM): low to no impact
inhibition of ZIKV infection, step b: pretreatment of cells (ZIKV (PAN2016); cells with natural product 37 °C 1 h before ZIKV, gossypol 15 µM, curcumin 30 µM, digitonin 7.5 µM, conessine 30 µM): low to no impact
binding to ZIKV full-length E protein (in words) [6]: much lower binding affinity
binding to ZIKV EDIII protein (in words) ([7]; ELISA): much lower binding affinity
Fold of Enhancement (natural product with gossypol) (ZIKV strain PAN2016 [8]): 2.60
CI (combination index) of gossypol with the named natural product (ZIKV strain PAN2016 [8]): 0.52
IC50 (ZIKV strain PAN2016 [8]): 13.2 ± 0.81 µM
Fold of Enhancement (natural product with gossypol) (ZIKV strain FLR [9]): 2.84
CI (combination index) of gossypol with the named natural product (ZIKV strain FLR [9]): 0.49
IC50 (ZIKV strain FLR [9]): 17.05 ± 0.08 µM
Fold of Enhancement (natural product with gossypol) (ZIKV strain PRVABC59 [10]): 5.46
CI (combination index) of gossypol with the named natural product (ZIKV strain PRVABC59 [10]): 0.30
IC50 (ZIKV strain PRVABC59 [10]): 12.46 ± 0.05 µM
cytotoxicity in Vero E6 cells observed under a microscope (Vero E6 cells [11]): no obvious cytotoxicity
CC50 at 3 days (in vitro [12]): 52.86 ± 0.52 µM
CC50 at 3 days (in vitro [13]): 59.4 ± 1.18 µM
CC50 at 3 days (in vitro [14]): 53.1 ± 1.83 µM
Fold of Enhancement of cytotoxicity (natural product with gossypol) (Vero E6 cells [15]): 0.28
Fold of Enhancement of cytotoxicity (natural product with gossypol) (Vero E6 cells [15]; listed as curcumin): not enhanced

C[C@H]1[C@H]2CC[C@H]3[C@@H]4CC=C5C[C@@H](N(C)C)CC[C@]5(C)[C@H]4CC[C@]23CN1C [Conessine, conessine]
IC90 (ZIKV strain PAN2016 [1]): ~31.8 µM
IC50 (ZIKV strain PAN2016 [1]): 9.75 ± 0.26 µM
IC50 (ZIKV strain R116265): 7.18 ± 0.13 µM
IC50 (ZIKV strain PAN2015): 7.98 ± 0.29 µM
IC50 (ZIKV strain FLR [2]): 9.65 ± 0.58 µM
IC50 (ZIKV strain R103451): 11.6 ± 0.33 µM
IC50 (ZIKV strain PRVABC59 [3]): 9.08 ± 0.33 µM
IC50 (ZIKV strain PLCal_ZV): 8.11 ± 0.37 µM
IC50 (ZIKV strain IbH 30656): 10.2 ± 0.41 µM
IC50 [4]: 10.94 ± 0.06 µM
IC50 [5]: 7.44 ± 0.11 µM
IC50 (DENV-1-V1792): 7.09 ± 0.08 µM
IC50 (DENV-2-V594): 6.61 ± 0.6 µM
IC50 (DENV-3-V1043): 7.41 ± 0.04 µM
IC50 (DENV-4-PR 06-65-740): 7.27 ± 0.31 µM
inhibition at 30 µM (ZIKV (PAN2016); [16]): 80 to 96%
inhibition at 30 µM (ZIKV (PAN2016); Vero C1008, 1 h, read-out: inhibition of ZIKV infection, step e: penetration (membrane fusion)): 80 to 96%
inhibition at 30 µM (ZIKV (PAN2016); Vero C1008, 1 h, read-out: inhibition of ZIKV infection, step f: postentry stage): 80 to 96%
inhibition of ZIKV infection, step c: cotreatment at 4 °C (attachment) (ZIKV (PAN2016); cells, ZIKV and natural product 4 °C 1 h, gossypol 15 µM, curcumin 30 µM, digitonin 7.5 µM, conessine 30 µM): very low to no effect
inhibition of ZIKV infection, step a: pretreatment of ZIKV (ZIKV (PAN2016); natural product with ZIKV 37 °C 1 h before cells, gossypol 15 µM, curcumin 30 µM, digitonin 7.5 µM, conessine 30 µM): very low to no effect
binding to ZIKV full-length E protein (in words) [6]: did not bind
binding to ZIKV EDIII protein (in words) [7]: did not bind
Fold of Enhancement (natural product with gossypol) (ZIKV strain PAN2016 [8]): 3.44
CI (combination index) of gossypol with the named natural product (ZIKV strain PAN2016 [8]): 0.44
IC50 (ZIKV strain PAN2016 [8]): 10 ± 0.25 µM
Fold of Enhancement (natural product with gossypol) (ZIKV strain FLR [9]): 1.13
CI (combination index) of gossypol with the named natural product (ZIKV strain FLR [9]): 0.85
IC50 (ZIKV strain FLR [9]): 10.1 ± 0.45 µM
Fold of Enhancement (natural product with gossypol) (ZIKV strain PRVABC59 [10]): 6.29
CI (combination index) of gossypol with the named natural product (ZIKV strain PRVABC59 [10]): 0.28
IC50 (ZIKV strain PRVABC59 [10]): 9.4 ± 0.21 µM
cytotoxicity in Vero E6 cells observed under a microscope (Vero E6 cells [11]): no obvious cytotoxicity
CC50 at 3 days (in vitro [12]): 323.71 ± 0.25 µM
CC50 at 3 days (in vitro [13]): 303 ± 13.4 µM
CC50 at 3 days (in vitro [14]): 314.6 ± 2.32 µM
Fold of Enhancement of cytotoxicity (natural product with gossypol) (Vero E6 cells [15]): ~5.78

CC(C)C[C@H](NC(=O)[C@H](Cc1ccccc1)NC(=O)c1cnccn1)B(O)O [Bortezomib, bortezomib, reference compound]
IC50 (ZIKV strain PAN2016 [1]): 9.75 ± 0.03 µM
IC50 (ZIKV strain R116265): 8.94 ± 0.1 µM
IC50 (ZIKV strain PAN2015): 9.88 ± 0.12 µM
IC50 (ZIKV strain FLR [2]): 9.62 ± 0.59 µM
IC50 (ZIKV strain PRVABC59 [3]): 11.7 ± 0.82 µM
IC50 (ZIKV strain PLCal_ZV): 31 ± 0.71 µM
IC50 (ZIKV strain IbH 30656): 9.35 ± 0.23 µM
IC50 [4]: 7.67 ± 0.31 µM
IC50 [5]: 9.51 ± 0.26 µM
binding to ZIKV full-length E protein (in words) [6]: did not bind
binding to ZIKV EDIII protein (in words) ([7]; ELISA): did not bind
IC50 (ZIKV strain PAN2016 [8]): 10.65 ± 0.01 µM
IC50 (ZIKV strain FLR [9]): 9.7 ± 0.76 µM
IC50 (ZIKV strain PRVABC59 [10]): 12.17 ± 0.07 µM
CC50 at 3 days (in vitro [12]): 17 ± 0.2 µM
CC50 at 3 days (in vitro [14]): 17.77 ± 0.17 µM
